Results as given in PubChem BioAssay AID1919015 (Molecular Pharmacology Branch, DTP, NCI, 2023).
Where “and” joins values, the source holds several entries; their conditions need not be identical. Equal entries are not always repeated.

System: OVCAR-5 complex spheroids with HUVEC/MSC, viability, % test/control
Assay: Anticancer human tumor OVCAR-5 cell line growth inhibition [AhR];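 also: spheroids exposed to compounds for 7 days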;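 as to viability, T/C: 100% = DMSO vehicle control wells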
Details: for viability, T/C: stronger effect = lower value
Procedure, shortened: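 Agents were dosed in half-log steps down from roughly clinical Cmax, or from 10 microM where Cmax was unknown, alone and with AhR antagonists. Read-out: percent test/control growth of tumor spheroids containing HUVEC and MSC stromal cells.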

[1] = curve of first compound, second compound 0.1 µM
[2] = curve of first compound, second compound 0.316 µM
[3] = curve of first compound, second compound 1 µM
[4] = curve of first compound, second compound 3.16 µM
[5] = curve of first compound, second compound 10 µM
[6] = second compound 0.1 µM, first compound 0.0316 µM
[7] = second compound 0.1 µM, first compound 0.1 µM
[8] = second compound 0.1 µM, first compound 0.316 µM
[9] = second compound 0.1 µM, first compound 1 µM
[10] = second compound 0.1 µM, first compound 3.16 µM
[11] = second compound 0.1 µM, first compound 10 µM
[12] = second compound 0.316 µM, first compound 0.0316 µM
[13] = second compound 0.316 µM, first compound 0.1 µM
[14] = second compound 0.316 µM, first compound 0.316 µM
[15] = second compound 0.316 µM, first compound 1 µM
[16] = second compound 0.316 µM, first compound 3.16 µM
[17] = second compound 0.316 µM, first compound 10 µM
[18] = second compound 1 µM, first compound 0.0316 µM
[19] = second compound 1 µM, first compound 0.1 µM
[20] = second compound 1 µM, first compound 0.316 µM
[21] = second compound 1 µM, first compound 1 µM
[22] = second compound 1 µM, first compound 3.16 µM
[23] = second compound 1 µM, first compound 10 µM
[24] = second compound 3.16 µM, first compound 0.0316 µM
[25] = second compound 3.16 µM, first compound 0.1 µM
[26] = second compound 3.16 µM, first compound 0.316 µM
[27] = second compound 3.16 µM, first compound 1 µM
[28] = second compound 3.16 µM, first compound 3.16 µM
[29] = second compound 3.16 µM, first compound 10 µM
[30] = second compound 10 µM, first compound 0.0316 µM
[31] = second compound 10 µM, first compound 0.1 µM
[32] = second compound 10 µM, first compound 0.316 µM
[33] = second compound 10 µM, first compound 1 µM
[34] = second compound 10 µM, first compound 3.16 µM
[35] = second compound 10 µM, first compound 10 µM

Compound | IC50 [1] [µM] | IC50 [2] [µM] | IC50 [3] [µM] | IC50 [4] [µM] | IC50 [5] [µM] | viability, T/C [6] [%] | viability, T/C [7] [%] | viability, T/C [8] [%] | viability, T/C [9] [%] | viability, T/C [10] [%] | viability, T/C [11] [%] | viability, T/C [12] [%] | viability, T/C [13] [%] | viability, T/C [14] [%] | viability, T/C [15] [%] | viability, T/C [16] [%] | viability, T/C [17] [%] | viability, T/C [18] [%] | viability, T/C [19] [%] | viability, T/C [20] [%] | also measured
CC1COCCN1c1cc(C2(S(C)(=N)=O)CC2)nc(-c2ccnc3[nH]ccc23)n1 (centres undefined) + CC(CO)NC(=O)c1cc(-c2ccc(Cl)cc2)nn(-c2cnn(C)c2)c1=O | 9.07 | 9.9 | > 10 | 8.95 | 6.64 | 106 | 105 | 104 | 101 | 80.9 | 47.1 | 109 | 105 | 107 | 108 | 81.6 | 49.7 | 116 | 112 | 112 | viability, T/C [21]: 109%; viability, T/C [22]: 89.9%; viability, T/C [23]: 53%; viability, T/C [24]: 108%; viability, T/C [25]: 101%; viability, T/C [26]: 100%; viability, T/C [27]: 93.1%; viability, T/C [28]: 77.2%; viability, T/C [29]: 46.7%; viability, T/C [30]: 96.1%; viability, T/C [31]: 97.5%; viability, T/C [32]: 95.4%; viability, T/C [33]: 83.8%; viability, T/C [34]: 61.5%; viability, T/C [35]: 43.7%
CC(C)CC(NC(=O)C(Cc1ccccc1)NC(=O)c1cnccn1)B(O)O (centres undefined) | – | – | – | – | – | – | – | – | – | – | – | – | – | – | – | – | – | – | – | – | viability, T/C (compound 0.000949 µM): 99.2% and 101% and 95.8%; viability, T/C (compound 0.003 µM): 99.8% and 102% and 100%; viability, T/C (compound 0.00949 µM): 100% and 96.3% and 85.5%; viability, T/C (compound 0.03 µM): 78.9% and 69.3% and 39%; viability, T/C (compound 0.0949 µM): 36% and 27.6% and 18%; viability, T/C (compound 0.3 µM): 24.7% and 18.1% and 11.4%; IC50 (curve of compound): 0.0649 µM and 0.051 µM and 0.0231 µM
Nc1ccccc1NC(=O)c1ccc(CNC(=O)OCc2cccnc2)cc1 + Cc1ccccc1N=Nc1ccc(NC(=O)c2ccnn2C)c(C)c1 | 0.913 | 0.824 | 0.856 | 0.827 | 1.11 | 95.1 | 89.9 | 74.8 | 48.6 | 20.3 | 7.82 | 98.8 | 93.6 | 76.6 | 44.4 | 19.3 | 8.39 | 102 | 94.4 | 83.9 | viability, T/C [21]: 43.8%; viability, T/C [22]: 18.7%; viability, T/C [23]: 9.13%; viability, T/C [24]: 103%; viability, T/C [25]: 99.9%; viability, T/C [26]: 79.1%; viability, T/C [27]: 44.1%; viability, T/C [28]: 19%; viability, T/C [29]: 9.43%; viability, T/C [30]: 91.1%; viability, T/C [31]: 96.1%; viability, T/C [32]: 75.4%; viability, T/C [33]: 56%; viability, T/C [34]: 19.9%; viability, T/C [35]: 9.42%
Nc1ccn(C2OC(CO)C(O)C2(F)F)c(=O)n1 (centres undefined) + Cc1ccccc1N=Nc1ccc(NC(=O)c2ccnn2C)c(C)c1 | < 0.0316 | < 0.0316 | < 0.0316 | < 0.0316 | < 0.0316 | 27.7 | 25.4 | 26.3 | 27.4 | 28.5 | 28.1 | 27.5 | 25.3 | 26.4 | 26.9 | 29 | 29.1 | 29.7 | 27.1 | 26.7 | viability, T/C [21]: 27.1%; viability, T/C [22]: 28%; viability, T/C [23]: 27.9%; viability, T/C [24]: 28.9%; viability, T/C [25]: 27.2%; viability, T/C [26]: 27.1%; viability, T/C [27]: 28.2%; viability, T/C [28]: 29.3%; viability, T/C [29]: 29.2%; viability, T/C [30]: 31.6%; viability, T/C [31]: 29.2%; viability, T/C [32]: 31.9%; viability, T/C [33]: 31.1%; viability, T/C [34]: 32.2%; viability, T/C [35]: 31%
O=C(c1cc(Cc2n[nH]c(=O)c3ccccc23)ccc1F)N1CCN(C(=O)C2CC2)CC1 + CC(CO)NC(=O)c1cc(-c2ccc(Cl)cc2)nn(-c2cnn(C)c2)c1=O | > 10 | > 10 | > 10 | > 10 | > 10 | 112 | 106 | 107 | 102 | 102 | 98.3 | 111 | 112 | 108 | 107 | 106 | 102 | 109 | 114 | 115 | viability, T/C [21]: 112%; viability, T/C [22]: 113%; viability, T/C [23]: 107%; viability, T/C [24]: 104%; viability, T/C [25]: 104%; viability, T/C [26]: 102%; viability, T/C [27]: 101%; viability, T/C [28]: 97.5%; viability, T/C [29]: 94.8%; viability, T/C [30]: 99.4%; viability, T/C [31]: 101%; viability, T/C [32]: 96.6%; viability, T/C [33]: 99.4%; viability, T/C [34]: 94.4%; viability, T/C [35]: 90.7%
Nc1ncn(C2CC(O)C(CO)S2)c(=O)n1 (centres undefined) | – | – | – | – | – | – | – | – | – | – | – | – | – | – | – | – | – | – | – | – | viability, T/C (compound 0.000949 µM): 103% and 101% and 99.6%; viability, T/C (compound 0.003 µM): 96.8% and 106% and 99.3%; viability, T/C (compound 0.00949 µM): 102% and 103% and 97.4%; viability, T/C (compound 0.03 µM): 99.8% and 99.5% and 105%; viability, T/C (compound 0.0949 µM): 91.7% and 90.7% and 99%; viability, T/C (compound 0.3 µM): 83.8% and 77.6% and 83.7%; IC50 (curve of compound): > 0.3 µM
